Experimental data reported in ChEMBL document CHEMBL1122779, “Antiinflammatory agents. 3. Synthesis and pharmacological evaluation of 2-amino-3-benzoylphenylacetic acid and analogues” (J Med Chem, 1984).

How the values were obtained:
[1] = tested on: Rattus norvegicus; test: Percent change in avg. volume of pleural fluid at a dose 4 mg/kg of indomethacin and 5-h response is evaluated by Evans blue-carrageenan induced pleural effusion assay; assay type: functional
[2] = tested on: Rattus norvegicus; test: Percent change in average volume of pleural fluid at a dose of 4.0 mg/kg and 5-h response by Evans blue-carrageenan induced pleural effusion assay.; assay type: functional
[3] = Chronic therapeutic index as ratio of potency in adjuvant-induced arthritis assay to that of potency in intestinal toxicity assay; details: read-out: Chronic TI
[4] = Acute therapeutic index as ratio of potency in pleural effusion to that of potency in gastric toxicity assay; assay type: tissue-based; details: Stomach; read-out: Acute TI
[5] = tested on: Rattus norvegicus; test: Acute gastric toxicity (single oral dose) in male fasted rats; assay type: organism-based, Stomach; details: in vivo
[6] = tested on: Rattus norvegicus; test: Percent change in avg. volume of pleural fluid at a dose of 0.16 mg/kg and 5-h response is evaluated by Evans blue-carrageenan induced pleural effusion assay
[7] = organism: Rattus norvegicus; test: Evaluated for acute potency in pleural effusion assay; assay type: functional
[8] = molecular target: T1, Cyclooxygenase (Bos taurus, UniProt O62664+O62698)
T1 sequence (O62664 whole entry): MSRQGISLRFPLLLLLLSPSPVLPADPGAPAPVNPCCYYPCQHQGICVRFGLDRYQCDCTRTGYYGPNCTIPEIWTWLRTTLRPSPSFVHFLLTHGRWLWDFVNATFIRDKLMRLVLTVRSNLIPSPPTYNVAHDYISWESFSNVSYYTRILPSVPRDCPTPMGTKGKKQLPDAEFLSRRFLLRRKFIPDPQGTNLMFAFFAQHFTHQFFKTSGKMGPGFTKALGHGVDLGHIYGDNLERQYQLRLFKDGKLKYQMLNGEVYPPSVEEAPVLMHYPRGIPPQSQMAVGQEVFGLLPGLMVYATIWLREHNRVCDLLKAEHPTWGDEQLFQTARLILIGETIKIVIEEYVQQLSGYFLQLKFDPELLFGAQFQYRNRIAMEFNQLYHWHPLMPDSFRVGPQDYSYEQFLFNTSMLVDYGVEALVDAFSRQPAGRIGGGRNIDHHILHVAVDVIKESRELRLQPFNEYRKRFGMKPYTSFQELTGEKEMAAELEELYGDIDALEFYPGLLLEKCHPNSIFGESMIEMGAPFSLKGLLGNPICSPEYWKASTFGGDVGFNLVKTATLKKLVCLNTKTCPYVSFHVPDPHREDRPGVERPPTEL
T1 sequence (O62698 whole entry): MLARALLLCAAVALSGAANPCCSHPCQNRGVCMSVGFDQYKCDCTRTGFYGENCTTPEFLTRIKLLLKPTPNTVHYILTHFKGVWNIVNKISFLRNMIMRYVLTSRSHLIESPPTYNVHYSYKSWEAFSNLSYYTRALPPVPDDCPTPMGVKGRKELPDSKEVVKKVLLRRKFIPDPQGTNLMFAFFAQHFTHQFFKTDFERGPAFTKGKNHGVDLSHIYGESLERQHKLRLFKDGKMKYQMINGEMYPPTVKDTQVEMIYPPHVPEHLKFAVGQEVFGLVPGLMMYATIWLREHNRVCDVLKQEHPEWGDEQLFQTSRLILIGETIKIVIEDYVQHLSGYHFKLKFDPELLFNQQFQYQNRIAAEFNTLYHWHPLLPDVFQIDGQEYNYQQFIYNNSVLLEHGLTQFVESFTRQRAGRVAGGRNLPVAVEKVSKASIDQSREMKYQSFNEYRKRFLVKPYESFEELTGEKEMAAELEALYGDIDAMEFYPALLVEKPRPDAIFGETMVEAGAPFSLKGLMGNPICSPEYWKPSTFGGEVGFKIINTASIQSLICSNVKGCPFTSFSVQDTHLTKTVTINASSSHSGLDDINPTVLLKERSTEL
Description: Inhibition of prostaglandin G/H synthase obtained from bovine seminal vesicles.

[9] = tested on: Rattus norvegicus; test: Percent change in average volume of pleural fluid at a dose of 100 mg/kg and 5-h response by Evans blue-carrageenan induced pleural effusion assay.; assay type: functional
[10] = tested on: Rattus norvegicus; test: Percent change in average volume of pleural fluid at a dose 4 mg/kg of indomethacin and 5-h response is evaluated by Evans blue-carrageenan induced pleural effusion assay; assay type: functional
[11] = tested on: Mus musculus; test: Oral analgesic activity was determined in mice by the acetylcholine-induced abdominal constriction assay upon ip administration of acetylcholine bromide 5 hours following oral administration; assay type: functional; details: Abdomen
[12] = tested on: Rattus norvegicus; test: Evaluated for chronic intestinal toxicity (multiple oral dose) in rats; assay type: organism-based; details: in vivo
[13] = organism: Rattus norvegicus; test: Evaluated for chronic potency in adjuvant arthritis assay; assay type: functional
[14] = tested on: Mus musculus; test: Oral analgesic activity was determined in mice by the acetylcholine-induced abdominal constriction assay upon ip administration of acetylcholine bromide 20 min following oral administration; assay type: functional; details: Abdomen
[15] = tested on: Rattus norvegicus; test: Percent change in avg. volume of pleural fluid at a dose of 4.0 mg/kg and 5-h response is evaluated by Evans blue-carrageenan induced pleural effusion assay; assay type: functional

| SMILES | Change [1] [%] | Change [2] [%] | selectivity ratio [3] | selectivity ratio [4] | Gastric toxicity [5] | Change [6] [%] | Potency [7] | IC50 [8] [µM] | Change [9] [%] | Change [10] [%] | ED50 [11] [mg/kg] | Intestinal toxicity [12] | Potency [13] | ED50 [14] [mg/kg] | Change [15] [%] |
| --- | --- | --- | --- | --- | --- | --- | --- | --- | --- | --- | --- | --- | --- | --- | --- |
| Nc1ccc(CC(=O)O)cc1C(=O)c1ccccc1 | -31 | -4 | – | – | – | – | – | – | – | – | – | – | – | – | – |
| Nc1c(CC(=O)[O-])cccc1C(=O)c1ccc(I)cc1.[Na+] | – | -31 | 2.5 | 1.3 | 5.3 | -17 | 6.9 | 0.07 | -44 | -32 | 0.18 | 3.3 | 8.1 | 0.13 | – |
| Nc1c(CC(=O)[O-])cccc1C(=O)c1ccc(Cl)cc1Cl.[Na+] | – | -37 | – | – | 1 | -16 | 5.3 | 0.6 | -41 | -33 | > 0.3 | 0.6 | 4.2 | 0.21 | – |
| Nc1c(CC(=O)[O-])cc(Cl)cc1C(=O)c1ccc(Cl)cc1.[Na+] | – | -41 | 1.4 | 3.8 | 1.2 | -18 | 4.6 | 0.3 | – | -32 | 0.31 | 1.2 | 1.7 | 0.23 | – |
| Nc1c(CC(=O)[O-])cc(Cl)cc1C(=O)c1ccc(Br)cc1.[Na+] | – | -41 | 1.6 | 10 | 1.5 | – | 15 | 0.02 | -38 | -40 | 0.13 | 2.9 | 4.6 | 0.05 | – |
| Nc1cc(C(=O)c2ccccc2)ccc1CC(=O)[O-].[Na+] | – | – | – | – | – | – | – | – | -2 | – | – | – | – | – | -31 |
| Nc1cccc(C(=O)c2ccccc2)c1CC(=O)[O-].[Na+] | -35 | -2 | – | – | – | – | – | – | – | – | – | – | – | – | – |
| Nc1c(CC(=O)[O-])cccc1C(=O)c1ccccc1.[Na+] [AMFENAC SODIUM] | – | -26 | – | – | 0.7 | -13 | 0.7 | – | -35 | -33 | > 3 | 0.4 | 1.1 | 0.11 | – |
| Nc1ccc(C(=O)c2ccccc2)cc1CC(=O)O | – | – | – | – | – | – | – | – | – | -43 | – | – | – | – | 11 |
| Nc1c(CC(=O)[O-])cccc1C(=O)c1ccc(Cl)cc1.[Na+] | – | -29 | 1.6 | 4.3 | 0.9 | -16 | 3.8 | 0.3 | -38 | -33 | 0.93 | 1.4 | 2.2 | 0.1 | – |
| Nc1c(CC(=O)[O-])cccc1C(=O)c1ccc(Br)cc1.Nc1c(CC(=O)[O-])cccc1C(=O)c1ccc(Br)cc1.O.O.O.[Na+].[Na+] [BROMFENAC SODIUM] | – | -43 | 3.2 | 5.4 | 1.4 | -27 | 7.5 | 0.08 | – | -41 | 0.13 | 1.8 | 5.8 | 0.07 | – |
| Nc1c(CC(=O)[O-])cc(F)cc1C(=O)c1ccc(Cl)cc1.[Na+] | – | -37 | – | – | 1.1 | -15 | 3.6 | 0.1 | – | -34 | 1.4 | 0.5 | 1.9 | 0.28 | – |
| Nc1c(CC(=O)[O-])cc(F)cc1C(=O)c1ccc(Br)cc1.[Na+] | – | -28 | 1.2 | 4.9 | 1.7 | – | 8.4 | 0.04 | -28 | -25 | 0.29 | 1.9 | 2.2 | 0.18 | – |
| Cc1cc(CC(=O)[O-])c(N)c(C(=O)c2ccc(Cl)cc2)c1.[Na+] | – | -32 | – | – | 0.27 | 0 | 1.7 | 0.7 | -38 | -35 | 0.65 | 0.4 | 0.63 | 0.78 | – |
| Cc1cc(CC(=O)O)n(C)c1C(=O)c1ccc(Cl)cc1 [ZOMEPIRAC] | – | – | 1.1 | 3.1 | 0.25 | – | 0.78 | 15 | – | – | 0.59 | 0.63 | 0.67 | 0.21 | – |
| COc1cc(CC(=O)[O-])c(N)c(C(=O)c2ccccc2)c1.[Na+] | -48 | -18 | – | – | – | – | – | 5.4 | – | – | – | – | – | – | – |
| COc1ccc2c(c1)c(CC(=O)O)c(C)n2C(=O)c1ccc(Cl)cc1 [INDOMETHACIN] | – | -33 | – | – | 1 | -7 | 1 | – | – | – | 0.22 | 1 | 1 | 0.22 | – |
| Nc1c(CC(=O)[O-])cc(Cl)cc1C(=O)c1ccc(I)cc1.[Na+] | – | -35 | 2.5 | 1.1 | 3.5 | – | 3.8 | 0.03 | -38 | -33 | 0.24 | 2.2 | 5.5 | 0.24 | – |
